One experiment deals with Primary T Cell. As to the kind of experiment: T cell enhancement of cytokines: IL2 measurement (HTRF) in expanded CD3+ T cells stimulated with anti-CD3/anti-CD28. The note with it: Homo sapiens, T-cell, 24 h, plate-bound anti-CD3 and soluble anti-CD28, 24 h, read-out: IL-2 Primary T Cell EC50. In kind it is cell-based, human.
The target of another experiment is T1, MAP4K1 (HPK1) (Homo sapiens, UniProt Q92918).
T1 construct: purchased Invitrogen
The experiment in a line: Inhibition of MAP4K1 biochemical enzymatic activity (EZReader 2 electrophoretic mobility shift assay). The note with it: HPK1 (Invitrogen), S6K2tide 1.5 μM, 120 min; ATP 26 μM or 1000 μM (not stated which). The method in brief: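 Mobility-shift assay: 0.1-15 nM enzyme, 1.5 μM fluorescent peptide, 20-1000 μM ATP (apparent Km or 1 mM) in HEPES pH 7.5, MgCl2, DTT, Brij 35; 60-180 min at 25° C, 1% DMSO. Ten-point 4-fold compound series in duplicate; EDTA-stopped, product/substrate peak ratio read.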

T1 sequence (Q92918 whole entry): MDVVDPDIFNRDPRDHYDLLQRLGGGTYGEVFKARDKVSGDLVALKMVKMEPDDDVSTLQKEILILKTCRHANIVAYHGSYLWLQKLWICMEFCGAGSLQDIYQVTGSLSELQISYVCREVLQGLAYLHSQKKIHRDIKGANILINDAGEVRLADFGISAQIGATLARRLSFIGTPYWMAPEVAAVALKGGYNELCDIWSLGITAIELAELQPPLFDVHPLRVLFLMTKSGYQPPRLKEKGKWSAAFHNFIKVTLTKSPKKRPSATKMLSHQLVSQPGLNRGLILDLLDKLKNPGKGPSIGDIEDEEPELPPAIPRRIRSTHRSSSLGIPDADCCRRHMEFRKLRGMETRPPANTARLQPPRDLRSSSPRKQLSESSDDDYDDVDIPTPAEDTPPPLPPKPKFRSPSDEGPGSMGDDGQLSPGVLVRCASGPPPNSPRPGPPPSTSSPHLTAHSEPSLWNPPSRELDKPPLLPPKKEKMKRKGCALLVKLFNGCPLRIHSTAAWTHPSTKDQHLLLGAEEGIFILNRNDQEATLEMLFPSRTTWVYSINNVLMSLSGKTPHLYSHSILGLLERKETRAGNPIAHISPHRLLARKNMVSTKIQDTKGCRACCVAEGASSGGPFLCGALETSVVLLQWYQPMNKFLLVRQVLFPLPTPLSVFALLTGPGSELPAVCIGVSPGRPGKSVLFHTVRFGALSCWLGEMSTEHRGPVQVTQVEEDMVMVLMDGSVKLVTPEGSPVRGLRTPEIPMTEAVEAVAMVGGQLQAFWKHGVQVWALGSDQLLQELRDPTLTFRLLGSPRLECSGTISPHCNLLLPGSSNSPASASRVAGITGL

Turning to `C[C@@H]1c2nc(Nc3cc4c(C(C)(C)N)cnc(OCCN5CCCC5=O)c4cn3)ccc2C(=O)OC1(C)C` [Compound 31], in the experiment on Primary T Cell, the half-maximal effective concentration (EC50) is 42.8 nM. Further, at MAP4K1 (HPK1), the IC50 is 0.21 nM.
Consider `CCC(=O)N1C[C@@H](Oc2ncc(C(C)(C)N)c3cc(Nc4ccc5c(n4)[C@@H](C)C(C)(C)OC5=O)ncc23)[C@@H]1C` [Compound 118], for which the 50% effective concentration (EC50) in the experiment on Primary T Cell was 17.7 nM. Moreover, on MAP4K1 (HPK1), the 50% inhibitory concentration (IC50) is 0.17 nM.
For the molecule `CCC[C@@](C)(N)c1ncc(OC2CN(C(C)=O)C2)c2cnc(Nc3ccc4c(n3)CC(C)(C)OC4=O)cc12` (single isomer, unassigned) [Compound 112], in the experiment with Primary T Cell, the concentration for a half-maximal effect (EC50) came out at 10.2 nM. Besides, the IC50 on MAP4K1 (HPK1) worked out at 0.24 nM.
Taken in the same sequence, the figures for `C[C@@H]1c2nc(Nc3cc4c(C(C)(C)N)cnc(OC5CN(C(=O)N6CC(F)C6)C5)c4cn3)ccc2C(=O)OC1(C)C` [Compound 95] were 19.8 nM and 0.22 nM.
For the molecule `C[C@@H]1OC(=O)c2ccc(Nc3cc4c(C(C)(C)N)cnc(OC5CN(C(=O)[C@H]6C[C@H]6F)C5)c4cn3)nc2[C@H]1C` [Compound 9], the EC50 with Primary T Cell stood at 16.8 nM. Also, the concentration for half-maximal inhibition (IC50) at MAP4K1 (HPK1) turned out to be 0.16 nM.
With `CC[C@@H](N)c1cnc(OC2CN(C(=O)[C@@H]3C[C@@H]3F)C2)c2cnc(Nc3ccc4c(n3)[C@@H](C)C(C)(C)OC4=O)cc12` (single isomer, unassigned) [Compound 11, (R)-2-((5-((R)-1-aminopropyl)-8-((1-((1S,2S)-2-fluorocyclopropane-1-carbonyl)azetidin-3-yl)oxy)-2,7-naphthyridin-3-yl)amino)-7,7,8-trimethyl-7,8-dihydro-5H-pyrano[4,3-b]pyridin-5-one or (R)-2-((5-((S)-1-aminopropyl)-8-((1-((1S,2S)-2-fluorocyclopropane-1-carbonyl)azetidin-3-yl)oxy)-2,7-naphthyridin-3-yl)amino)-7,7,8-trimethyl-7,8-dihydro-5H-pyrano[4,3-b]pyridin-5-one], in the experiment on Primary T Cell, the EC50 worked out at 38.6 nM. The concentration for half-maximal inhibition (IC50) at MAP4K1 (HPK1) was found to be 0.63 nM.
For `CC[C@H](N)c1cnc(O[C@H]2C[C@@H](C(=O)N3CC(OC)C3)C2)c2cnc(Nc3ccc4c(n3)[C@@H](C)C(C)(C)OC4=O)cc12` (single isomer, unassigned) [Compound 127], the EC50 in the experiment with Primary T Cell was 74.2 nM. In addition, the IC50 on MAP4K1 (HPK1) was determined as 0.09 nM.
For `CC(=O)N1CC(Oc2ccc(C(C)(C)N)c3cc(Nc4ccc5c(n4)[C@@H](C)[C@H](C)OC5=O)ncc23)C1` [Compound 19], the EC50 in the experiment on Primary T Cell stood at 41.1 nM. For the same molecule, the 50% inhibitory concentration (IC50) on MAP4K1 (HPK1) was determined as 0.2 nM.

The record behind these values is patent US20240199648A1, “MAP4K1 INHIBITORS” (Blueprint Medicines Corporation, priority 2021, published 2024).
